For test [1], the target named is Beta Secretase enzyme (BACE) (Homo sapiens, UniProt P56817). Nature of the test: In vitro enzymatic BACE FRET (fluorescence resonance energy transfer) assay. Type of test: biochemical. The following applies: average IC50, enzyme assay; read-out: BACE 1 FRET assay. The method in brief:
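Acetate buffer (0.05 M, pH 4.2), 10% DMSO final, 100 uM nonionic detergent genapol. Substrate addition (50 nM FRET peptide) initiates; one-hour incubation; Tris raises pH to neutrality before fluorescence measurement.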

The subject of test [2] is Aβ40 in conditioned medium of cells stably expressing Amyloid Precursor Protein (APP). As to the kind of experiment: In vitro BACE cell-based assay (Aβ40 in conditioned medium, sandwich ELISA). As to conditions: read-out: HEK cell assay. The method in brief:
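Secreted Aβ40 is captured with pAb40 and detected with biotinylated 6E10, read by europium time-resolved fluorescence. IC50 comes from percent inhibition versus concentration.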
For orientation: In an ELISA, binding on a coated surface is turned into a signal by an enzyme label.

Setting [3] is: Homo sapiens, HEK293, average IC50, HEK cells.
The mark [4] stands for this setting: Homo sapiens, HEK293, average IC50.

Where two headings read alike, the source gives them in different places.

Beta Secretase enzyme (BACE), sequence (P56817 46-501, species assumed): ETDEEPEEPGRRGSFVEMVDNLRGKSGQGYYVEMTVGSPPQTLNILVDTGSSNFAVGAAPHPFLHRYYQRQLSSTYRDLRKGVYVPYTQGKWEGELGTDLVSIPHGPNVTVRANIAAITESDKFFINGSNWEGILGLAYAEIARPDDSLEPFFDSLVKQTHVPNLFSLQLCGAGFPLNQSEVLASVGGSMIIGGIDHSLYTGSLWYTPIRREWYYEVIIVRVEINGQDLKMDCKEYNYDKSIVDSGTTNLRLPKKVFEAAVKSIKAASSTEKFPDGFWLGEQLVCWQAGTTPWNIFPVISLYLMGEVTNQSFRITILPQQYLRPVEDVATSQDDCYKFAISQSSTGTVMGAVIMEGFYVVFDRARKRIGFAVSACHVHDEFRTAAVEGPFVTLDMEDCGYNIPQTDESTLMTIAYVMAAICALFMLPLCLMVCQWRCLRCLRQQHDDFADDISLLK

`CC#Cc1cncc(-c2ccc3c(c2)[C@@]2(COC(N)=N2)c2cc(OCC(C)(C)C#N)cc(F)c2O3)c1` [Example 948, 3-(((4S)-2-amino-4′-fluoro-7′-(5-(1-propyn-1-yl)-3-pyridinyl)spiro[1,3-oxazole-4,9′-xanthen]-2′-yl)oxy)-2,2-dimethylpropanenitrile]: the IC50 in test [1] came out at 0.4 nM; in test [2] (setting [3]) it was 4 nM.
As for `CC1(C#Cc2cc3c(c(F)n2)Oc2ccc(-c4cccnc4F)cc2[C@@]32COC(N)=N2)COC1` [Example 738, (5S)-1-fluoro-7-(2-fluoro-3-pyridinyl)-3-((3-methyl-3-oxetanyl)ethynyl)spiro[chromeno[2,3-c]pyridine-5,4′-[1,3]oxazol]-2′-amine], the IC50 came out at 0.6 nM in test [1] and 10 nM in test [2] (setting [4]).
As to `N#Cc1cccc(-c2ccc3c(c2)C2(COC(N)=N2)c2cc(C4CCOCC4)nc(F)c2O3)c1` (stereo not shown) [Example 751, 3-(2′-amino-1-fluoro-3-(tetrahydro-2H-pyran-4-yl)spiro[chromeno[2,3-c]pyridine-5,4′-[1,3]oxazol]-7-yl)benzonitrile], the IC50 in test [1] was determined as 3.2 nM; in test [2] (setting [4]) it was 42 nM.
The matching figures for `CC1(COc2cc(F)c3c(c2)[C@]2(COC(N)=N2)c2cc(-c4cnccn4)ccc2O3)COC1` [Example 267, (4S)-4′-fluoro-2′-((3-methyl-3-oxetanyl)methoxy)-7′-(2-pyrazinyl)spiro[1,3-oxazole-4,9′-xanthen]-2-amine]: 3.1 nM and 12 nM.
The matching figures for `N#Cc1cccc(-c2ccc3c(c2)[C@@]2(COC(N)=N2)c2cc(C4=CCCOC4)nc(F)c2O3)c1` [Example 742, 3-((5S)-2′-amino-3-(5,6-dihydro-2H-pyran-3-yl)-1-fluorospiro[chromeno[2,3-c]pyridine-5,4′-[1,3]oxazol]-7-yl)benzonitrile]: 0.4 nM and 8 nM.
Consider `CC1(C)C=C(c2cnc3c(c2)[C@@]2(COC(N)=N2)c2c(ccc(-c4cncnc4)c2F)O3)CCO1` [Example 354, (5S)-3-(6,6-dimethyl-3,6-dihydro-2H-pyran-4-yl)-6-fluoro-7-(5-pyrimidinyl)spiro[chromeno[2,3-b]pyridine-5,4′-[1,3]oxazol]-2′-amine], for which the values for the IC50 in test [1] and in test [2] (setting [4]) were 91.8 nM and 342 nM, respectively.
With `NC1=N[C@]2(CO1)c1cc(C3=CCCOC3)cc(F)c1Oc1ccc(-c3cncnc3)c(F)c12` [Example 1049, (4R)-7′-(5,6-dihydro-2H-pyran-3-yl)-1′,5′-difluoro-2′-(5-pyrimidinyl)spiro[1,3-oxazole-4,9′-xanthen]-2-amine], the IC50 stood at 15.6 nM in test [1] and 85 nM in test [2] (setting [4]).
For `COc1cc(F)c2c(c1)[C@@]1(CSC(N)=N1)c1cc(-c3cnccn3)ccc1O2` [Example 222, (4R)-4′-fluoro-2′-methoxy-7′-(2-pyrazinyl)spiro[1,3-thiazole-4,9′-xanthen]-2-amine], in that order: 41.4 nM and 1080 nM.
For `NC1=N[C@@]2(CO1)c1cc(Oc3ccc(Cl)cn3)ccc1Oc1c(F)cc(N3CCOCC3)cc12` [Example 1061, (4S)-7′-((5-chloro-2-pyridinyl)oxy)-4′-fluoro-2′-(4-morpholinyl)spiro[1,3-oxazole-4,9′-xanthen]-2-amine], in that order: 57.4 nM and 538 nM.
For `Cn1cc(-c2cnc3c(c2)[C@@]2(COC(N)=N2)c2c(ccc(-c4cccnc4F)c2F)O3)cn1` [Example 357, (5S)-6-fluoro-7-(2-fluoro-3-pyridinyl)-3-(1-methyl-1H-pyrazol-4-yl)spiro[chromeno[2,3-b]pyridine-5,4′-[1,3]oxazol]-2′-amine], in that order: 1050 nM and 2130 nM.
As to `NC1=N[C@@]2(CO1)c1cc(-c3cccc(C(F)(F)F)c3)ccc1Oc1cnc(C3=CCOCC3)cc12` [Example 145, (5S)-3-(3,6-dihydro-2H-pyran-4-yl)-7-(3-(trifluoromethyl)phenyl)spiro[chromeno[2,3-c]pyridine-5,4′-[1,3]oxazol]-2′-amine], the IC50 is 2.2 nM in test [1] and 81.9 nM in test [2] (setting [4]).
The matching figures for `NC1=N[C@@]2(CS1)c1cc(-c3cccnc3F)ccc1Oc1c(F)cc(N3CC[C@@H](F)C3)cc12` [Example 1075, (4S)-4′-fluoro-7′-(2-fluoro-3-pyridinyl)-2′-((3R)-3-fluoro-1-pyrrolidinyl)spiro[1,3-thiazole-4,9′-xanthen]-2-amine]: 1.5 nM and 15 nM.
On to `NC1=N[C@@]2(CO1)c1cc(-c3cccnc3F)ccc1Oc1c2cc(Cl)nc1F` [Example 488, (5S)-3-chloro-1-fluoro-7-(2-fluoro-3-pyridinyl)spiro[chromeno[2,3-c]pyridine-5,4′-[1,3]oxazol]-2′-amine], for which the IC50 stood at 6.6 nM in test [1] and 358 nM in test [2] (setting [3]).
As to `CC#Cc1cncc(-c2ccc3c(c2)[C@@]2(COC(N)=N2)c2cc(Cl)nc(F)c2O3)c1` [Example 761, (5S)-3-chloro-1-fluoro-7-(5-(1-propyn-1-yl)-3-pyridinyl)spiro[chromeno[2,3-c]pyridine-5,4′-[1,3]oxazol]-2′-amine], the results for the IC50 in test [1] and in test [2] (setting [4]) were 0.9 nM and 185 nM, respectively.
For `NC1=N[C@@]2(CO1)c1cc(-c3cccnc3F)ncc1Oc1c(F)cc(C3=CCOCC3)cc12` [Example 306, (5S)-7-(3,6-dihydro-2H-pyran-4-yl)-9-fluoro-3-(2-fluoro-3-pyridinyl)spiro[chromeno[2,3-c]pyridine-5,4′-[1,3]oxazol]-2′-amine], in that order: 1.5 nM and 56.7 nM.
For `COC(C)(C)COc1cnc2c(c1)[C@@]1(COC(N)=N1)c1cc(-c3cccc(F)c3F)ccc1O2` [Example 314, (5R)-7-(2,3-difluorophenyl)-3-(2-methoxy-2-methylpropoxy)spiro[chromeno[2,3-b]pyridine-5,4′-[1,3]oxazol]-2′-amine], in that order: 1920 nM and 3660 nM.
The matching figures for `COc1nc(-c2ccncc2)cc2c1Oc1ccc(-c3cccnc3)cc1[C@@]21COC(N)=N1` [Example 838, (5S)-1-methoxy-7-(3-pyridinyl)-3-(4-pyridinyl)spiro[chromeno[2,3-c]pyridine-5,4′-[1,3]oxazol]-2′-amine]: 7.3 nM and 20 nM.
Regarding `COc1nc(Cl)cc2c1Oc1ccc(-c3cccnc3)cc1[C@@]21COC(N)=N1` [Example 830, (5S)-3-chloro-1-methoxy-7-(3-pyridinyl)spiro[chromeno[2,3-c]pyridine-5,4′-[1,3]oxazol]-2′-amine], the IC50 was 469 nM in test [1] and no less than 10000 nM in test [2] (setting [4]).
Take `CC(C)(C)COc1ccc2c(c1)[C@@]1(COC(N)=N1)c1cc(C3=CCOCC3)cnc1O2` [Example 503, (5S)-3-(3,6-dihydro-2H-pyran-4-yl)-7-(2,2-dimethylpropoxy)spiro[chromeno[2,3-b]pyridine-5,4′-[1,3]oxazol]-2′-amine]: the results for the IC50 in test [1] and in test [2] (setting [3]) were 4.7 nM and 19.6 nM, respectively.
Consider `CC1(C#Cc2cnc3c(c2)[C@]2(CSC(N)=N2)c2cc(-c4cccc(C#N)c4F)ccc2O3)COC1` [Example 780, 3-((5S)-2′-amino-3-((3-methyl-3-oxetanyl)ethynyl)spiro[chromeno[2,3-b]pyridine-5,4′-[1,3]thiazol]-7-yl)-2-fluorobenzonitrile], for which the IC50 in test [1] came out at 2 nM; in test [2] (setting [4]), 338 nM.
The matching figures for `NC1=N[C@@]2(CO1)c1cc(-c3cccnc3F)ccc1Oc1c(F)cc(-c3ccncn3)cc12` [Example 212, (4S)-4′-fluoro-7′-(2-fluoro-3-pyridinyl)-2′-(4-pyrimidinyl)spiro[1,3-oxazole-4,9′-xanthen]-2-amine]: 1.4 nM and 11.3 nM.
Consider `CC1(C)C[C@H](c2cnc3c(c2)[C@]2(COC(N)=N2)c2cc(-c4cccnc4F)ccc2O3)CCO1` [Example 469, (5S)-3-((4R)-2,2-dimethyltetrahydro-2H-pyran-4-yl)-7-(2-fluoro-3-pyridinyl)spiro[chromeno[2,3-b]pyridine-5,4′-[1,3]oxazol]-2′-amine], for which the IC50 in test [1] worked out at 2.8 nM; in test [2] (average IC50, HEK cells), 13.9 nM.
Regarding `COc1ncc(-c2ccc3c(c2)[C@@]2(COC(N)=N2)c2cc(N4CCC(F)(F)CC4)ncc2O3)cn1` [Example 419, (5S)-3-(4,4-difluoro-1-piperidinyl)-7-(2-methoxy-5-pyrimidinyl)spiro[chromeno[2,3-c]pyridine-5,4′-[1,3]oxazol]-2′-amine], the IC50 in test [1] was found to be 172 nM; in test [2] (setting [3]), 602 nM.
On to `COc1ncccc1-c1ccc2c(c1)[C@@]1(COC(N)=N1)c1cc(C3=CCOCC3)ncc1O2` [Example 240, (5S)-3-(3,6-dihydro-2H-pyran-4-yl)-7-(2-methoxy-3-pyridinyl)spiro[chromeno[2,3-c]pyridine-5,4′-[1,3]oxazol]-2′-amine], for which the IC50 in test [1] stood at 17.3 nM; in test [2] (setting [4]), 108 nM.
The matching figures for `NC1=N[C@@]2(CS1)c1cc(-c3cccnc3F)ccc1Oc1ncc(-c3ccnc(F)c3)cc12` [Example 767, (5S)-7-(2-fluoro-3-pyridinyl)-3-(2-fluoro-4-pyridinyl)spiro[chromeno[2,3-b]pyridine-5,4′-[1,3]thiazol]-2′-amine]: 1 nM and 23 nM.
For the molecule `NC1=N[C@@]2(CO1)c1cc(-c3cncc(N4CCC(F)(F)C4)c3)ccc1Oc1cnc(Cl)cc12` [Example 427, (5S)-3-chloro-7-(5-(3,3-difluoro-1-pyrrolidinyl)-3-pyridinyl)spiro[chromeno[2,3-c]pyridine-5,4′-[1,3]oxazol]-2′-amine], the results for the IC50 in test [1] and in test [2] (setting [3]) were 640 nM and 610 nM, respectively.

Values taken from patent publication US8883782B2, “Spiro-tetracyclic ring compounds as beta-secretase modulators and methods of use” (Amgen Inc., priority 2010, dated 2014).
